Organism: Rattus norvegicus
Experiment: Open TG-GATES - Regimen: Single
Type: toxicity, organism-based, Sprague-Dawley
Set-up: regimen Single, gender Male, age 6 weeks
Settings: in vivo, ip, route intraperitoneal injection; for APTT / Bas / Eos / Fbg / Hb / Ht / Lym / MCH / MCHC / MCV / Mono / Neu / PT / Plat / RBC / Ret / WBC: tissue Blood; for KIDNEY_L / KIDNEY_R / KIDNEY_TOTAL: tissue Kidney; for LIVER: tissue Liver; for A/G / ALP / ALT / AST / BUN / CRE / Ca / Cl / DBIL / GLC / IP / K / LDH / Na / PL / RALB / TBIL / TC / TG / TP / gamma-GTP: tissue Plasma
[1] = 450 mg/kg, 3 h, dose level Middle
[2] = 450 mg/kg, 6 h, dose level Middle
[3] = 450 mg/kg, 9 h, dose level Middle
[4] = 450 mg/kg, 24 h, dose level Middle
[5] = 1500 mg/kg, 3 h, dose level High
[6] = 1500 mg/kg, 6 h, dose level High
[7] = 1500 mg/kg, 9 h, dose level High
[8] = 1500 mg/kg, 24 h, dose level High

CCCCS(=N)(=O)CCC(N)C(=O)O (centres undefined) [BUTHIONINE SULFOXIMINE]
TERMINAL_BW [1]: 218.6 g
APTT [1]: 16.6 s
Bas [1]: 0%
Eos [1]: 0.8%
Fbg [1]: 216.4 mg/dL
Hb [1]: 13.3 g/dL
Ht [1]: 39.8%
Lym [1]: 69%
MCH [1]: 21.9 pg
MCHC [1]: 33.3%
MCV [1]: 65.7 fL
Mono [1]: 7.8%
Neu [1]: 22.2%
PT [1]: 12.1 s
Plat [1]: 112.2 x10_4/uL
RBC [1]: 606.8 x10_4/ul
Ret [1]: 8.5%
WBC [1]: 79.6 x10_2/uL
KIDNEY_L [1]: 1 g
KIDNEY_R [1]: 1 g
KIDNEY_TOTAL [1]: 2 g
LIVER [1]: 10.2 g
A/G [1]: 2.1
ALP [1]: 794 IU/L
ALT [1]: 42.6 IU/L
AST [1]: 72 IU/L
BUN [1]: 14 mg/dL
CRE [1]: 0.5 mg/dL
Ca [1]: 11 mg/dL
Cl [1]: 104 meq/L
DBIL [1]: 0.062 mg/dL
GLC [1]: 191.2 mg/dL
IP [1]: 10.5 mg/dL
K [1]: 4.5 meq/L
LDH [1]: 93 IU/L
Na [1]: 140.2 meq/L
PL [1]: 137.4 mg/dL
RALB [1]: 3.7 g/dL
TBIL [1]: 0.3 mg/dL
TC [1]: 71.4 mg/dL
TG [1]: 62.8 mg/dL
TP [1]: 5.5 g/dL
gamma-GTP [1]: 1.8 IU/L
TERMINAL_BW [2]: 217.2 g
APTT [2]: 16.6 s
Bas [2]: 0%
Eos [2]: 0.8%
Fbg [2]: 221.2 mg/dL
Hb [2]: 13.4 g/dL
Ht [2]: 40%
Lym [2]: 57.6%
MCH [2]: 22 pg
MCHC [2]: 33.5%
MCV [2]: 65.6 fL
Mono [2]: 4.6%
Neu [2]: 37.2%
PT [2]: 11 s
Plat [2]: 108.9 x10_4/uL
RBC [2]: 609.8 x10_4/ul
Ret [2]: 8.3%
WBC [2]: 96.1 x10_2/uL
KIDNEY_L [2]: 1 g
KIDNEY_R [2]: 1 g
KIDNEY_TOTAL [2]: 2 g
LIVER [2]: 9.4 g
A/G [2]: 2
ALP [2]: 837.2 IU/L
ALT [2]: 32 IU/L
AST [2]: 68.8 IU/L
BUN [2]: 11.4 mg/dL
CRE [2]: 0.7 mg/dL
Ca [2]: 10.8 mg/dL
Cl [2]: 104.8 meq/L
DBIL [2]: 0.016 mg/dL
GLC [2]: 193.2 mg/dL
IP [2]: 10 mg/dL
K [2]: 4.6 meq/L
LDH [2]: 100.6 IU/L
Na [2]: 140.4 meq/L
PL [2]: 129.8 mg/dL
RALB [2]: 3.5 g/dL
TBIL [2]: 0.3 mg/dL
TC [2]: 73.2 mg/dL
TG [2]: 43.2 mg/dL
TP [2]: 5.3 g/dL
gamma-GTP [2]: 1.2 IU/L
TERMINAL_BW [3]: 210.3 g
APTT [3]: 17 s
Bas [3]: 0%
Eos [3]: 0.8%
Fbg [3]: 253 mg/dL
Hb [3]: 13.3 g/dL
Ht [3]: 40%
Lym [3]: 63.2%
MCH [3]: 21.4 pg
MCHC [3]: 33.2%
MCV [3]: 64.5 fL
Mono [3]: 3.8%
Neu [3]: 32.2%
PT [3]: 11 s
Plat [3]: 113.1 x10_4/uL
RBC [3]: 620 x10_4/ul
Ret [3]: 8.4%
WBC [3]: 93.4 x10_2/uL
KIDNEY_L [3]: 1 g
KIDNEY_R [3]: 1 g
KIDNEY_TOTAL [3]: 1.9 g
LIVER [3]: 8.4 g
A/G [3]: 2.1
ALP [3]: 759.2 IU/L
ALT [3]: 31.2 IU/L
AST [3]: 61 IU/L
BUN [3]: 11.8 mg/dL
CRE [3]: 0.6 mg/dL
Ca [3]: 11 mg/dL
Cl [3]: 107 meq/L
DBIL [3]: 0.01 mg/dL
GLC [3]: 196.2 mg/dL
IP [3]: 9.6 mg/dL
K [3]: 4.8 meq/L
LDH [3]: 79.4 IU/L
Na [3]: 139.2 meq/L
PL [3]: 144.2 mg/dL
RALB [3]: 3.7 g/dL
TBIL [3]: 0.3 mg/dL
TC [3]: 84.4 mg/dL
TG [3]: 25 mg/dL
TP [3]: 5.5 g/dL
gamma-GTP [3]: 1.2 IU/L
TERMINAL_BW [4]: 229.8 g
APTT [4]: 16.6 s
Bas [4]: 0%
Eos [4]: 1.2%
Fbg [4]: 254 mg/dL
Hb [4]: 13.2 g/dL
Ht [4]: 39.6%
Lym [4]: 70.8%
MCH [4]: 21.4 pg
MCHC [4]: 33.2%
MCV [4]: 64.4 fL
Mono [4]: 9.4%
Neu [4]: 18.8%
PT [4]: 11.5 s
Plat [4]: 126.4 x10_4/uL
RBC [4]: 616.6 x10_4/ul
Ret [4]: 8.8%
WBC [4]: 85.5 x10_2/uL
KIDNEY_L [4]: 1 g
KIDNEY_R [4]: 1.1 g
KIDNEY_TOTAL [4]: 2.1 g
LIVER [4]: 11.1 g
A/G [4]: 1.8
ALP [4]: 1015.4 IU/L
ALT [4]: 30.2 IU/L
AST [4]: 60 IU/L
BUN [4]: 19.2 mg/dL
CRE [4]: 0.5 mg/dL
Ca [4]: 11.1 mg/dL
Cl [4]: 104.6 meq/L
DBIL [4]: 0.008 mg/dL
GLC [4]: 196.6 mg/dL
IP [4]: 8.3 mg/dL
K [4]: 4.4 meq/L
LDH [4]: 98 IU/L
Na [4]: 140 meq/L
PL [4]: 149.4 mg/dL
RALB [4]: 3.7 g/dL
TBIL [4]: 0.3 mg/dL
TC [4]: 80.6 mg/dL
TG [4]: 95.2 mg/dL
TP [4]: 5.8 g/dL
gamma-GTP [4]: 1.6 IU/L
TERMINAL_BW [5]: 213.4 g
APTT [5]: 16 s
Bas [5]: 0%
Eos [5]: 1%
Fbg [5]: 216.4 mg/dL
Hb [5]: 13.2 g/dL
Ht [5]: 39.5%
Lym [5]: 61.4%
MCH [5]: 21.6 pg
MCHC [5]: 33.4%
MCV [5]: 64.7 fL
Mono [5]: 9.2%
Neu [5]: 29%
PT [5]: 12 s
Plat [5]: 119.7 x10_4/uL
RBC [5]: 610.4 x10_4/ul
Ret [5]: 8.8%
WBC [5]: 106.8 x10_2/uL
KIDNEY_L [5]: 0.9 g
KIDNEY_R [5]: 1 g
KIDNEY_TOTAL [5]: 1.9 g
LIVER [5]: 10.1 g
A/G [5]: 2.2
ALP [5]: 832 IU/L
ALT [5]: 43.4 IU/L
AST [5]: 48 IU/L
BUN [5]: 15.2 mg/dL
CRE [5]: 0.4 mg/dL
Ca [5]: 10.9 mg/dL
Cl [5]: 104.8 meq/L
DBIL [5]: 0.066 mg/dL
GLC [5]: 191.2 mg/dL
IP [5]: 9.8 mg/dL
K [5]: 4.5 meq/L
LDH [5]: 89.2 IU/L
Na [5]: 138.8 meq/L
PL [5]: 137.8 mg/dL
RALB [5]: 3.8 g/dL
TBIL [5]: 0.3 mg/dL
TC [5]: 70.2 mg/dL
TG [5]: 57.8 mg/dL
TP [5]: 5.5 g/dL
gamma-GTP [5]: 1 IU/L
TERMINAL_BW [6]: 215.9 g
APTT [6]: 16.4 s
Bas [6]: 0%
Eos [6]: 0.8%
Fbg [6]: 218.6 mg/dL
Hb [6]: 13.3 g/dL
Ht [6]: 39.6%
Lym [6]: 67.2%
MCH [6]: 22 pg
MCHC [6]: 33.6%
MCV [6]: 65.5 fL
Mono [6]: 6.6%
Neu [6]: 25.6%
PT [6]: 10.8 s
Plat [6]: 124.2 x10_4/uL
RBC [6]: 605 x10_4/ul
Ret [6]: 8.3%
WBC [6]: 104.4 x10_2/uL
KIDNEY_L [6]: 0.9 g
KIDNEY_R [6]: 1 g
KIDNEY_TOTAL [6]: 1.9 g
LIVER [6]: 9 g
A/G [6]: 1.9
ALP [6]: 696.6 IU/L
ALT [6]: 31 IU/L
AST [6]: 56.2 IU/L
BUN [6]: 11.6 mg/dL
CRE [6]: 0.7 mg/dL
Ca [6]: 10.9 mg/dL
Cl [6]: 104.6 meq/L
DBIL [6]: 0.004 mg/dL
GLC [6]: 189.2 mg/dL
IP [6]: 10 mg/dL
K [6]: 4.5 meq/L
LDH [6]: 107.8 IU/L
Na [6]: 140 meq/L
PL [6]: 138.6 mg/dL
RALB [6]: 3.5 g/dL
TBIL [6]: 0.3 mg/dL
TC [6]: 80.8 mg/dL
TG [6]: 46.4 mg/dL
TP [6]: 5.4 g/dL
gamma-GTP [6]: 1.6 IU/L
TERMINAL_BW [7]: 211.3 g
APTT [7]: 17.8 s
Bas [7]: 0%
Eos [7]: 0.8%
Fbg [7]: 255.4 mg/dL
Hb [7]: 13.6 g/dL
Ht [7]: 40.4%
Lym [7]: 57.4%
MCH [7]: 21.8 pg
MCHC [7]: 33.7%
MCV [7]: 64.8 fL
Mono [7]: 5.2%
Neu [7]: 36.6%
PT [7]: 11.3 s
Plat [7]: 119.4 x10_4/uL
RBC [7]: 623.4 x10_4/ul
Ret [7]: 8.2%
WBC [7]: 103.7 x10_2/uL
KIDNEY_L [7]: 1 g
KIDNEY_R [7]: 1 g
KIDNEY_TOTAL [7]: 1.9 g
LIVER [7]: 8.6 g
A/G [7]: 1.9
ALP [7]: 782.6 IU/L
ALT [7]: 27 IU/L
AST [7]: 47.4 IU/L
BUN [7]: 12.2 mg/dL
CRE [7]: 0.5 mg/dL
Ca [7]: 11.3 mg/dL
Cl [7]: 106.2 meq/L
DBIL [7]: 0.012 mg/dL
GLC [7]: 202.4 mg/dL
IP [7]: 9.2 mg/dL
K [7]: 4.9 meq/L
LDH [7]: 89.4 IU/L
Na [7]: 138.6 meq/L
PL [7]: 137.6 mg/dL
RALB [7]: 3.7 g/dL
TBIL [7]: 0.3 mg/dL
TC [7]: 80.8 mg/dL
TG [7]: 37.6 mg/dL
TP [7]: 5.6 g/dL
gamma-GTP [7]: 1.4 IU/L
TERMINAL_BW [8]: 224.8 g
APTT [8]: 16.6 s
Bas [8]: 0%
Eos [8]: 1.4%
Fbg [8]: 273.2 mg/dL
Hb [8]: 13.3 g/dL
Ht [8]: 39.7%
Lym [8]: 73.8%
MCH [8]: 21.7 pg
MCHC [8]: 33.5%
MCV [8]: 64.8 fL
Mono [8]: 7.2%
Neu [8]: 17.8%
PT [8]: 11.7 s
Plat [8]: 119.6 x10_4/uL
RBC [8]: 613.4 x10_4/ul
Ret [8]: 9.3%
WBC [8]: 98.2 x10_2/uL
KIDNEY_L [8]: 1 g
KIDNEY_R [8]: 1 g
KIDNEY_TOTAL [8]: 2 g
LIVER [8]: 10.5 g
A/G [8]: 1.8
ALP [8]: 1035 IU/L
ALT [8]: 29.4 IU/L
AST [8]: 52.6 IU/L
BUN [8]: 19 mg/dL
CRE [8]: 0.5 mg/dL
Ca [8]: 11.3 mg/dL
Cl [8]: 104.2 meq/L
DBIL [8]: 0.024 mg/dL
GLC [8]: 205 mg/dL
IP [8]: 8.7 mg/dL
K [8]: 4.7 meq/L
LDH [8]: 104.8 IU/L
Na [8]: 139 meq/L
PL [8]: 143.6 mg/dL
RALB [8]: 3.7 g/dL
TBIL [8]: 0.3 mg/dL
TC [8]: 81.6 mg/dL
TG [8]: 67.4 mg/dL
TP [8]: 5.8 g/dL
gamma-GTP [8]: 1.4 IU/L
